Take `CCCCCCNC(=O)C=Cc1ccc(O)c(O)c1`: the logP (in general, a log measure of how a compound divides between an organic and an aqueous phase) came out at 3.37.
The value for `CCOc1ccc2cc(O)c(O)cc2c1` was 2.7; that for `O=C(C=Cc1ccc(O)c(O)c1)CCCCCO` was 1.67.
As to `CCCCCC(O)c1ccc(O)c(O)c1` (stereo unspecified), the lipophilicity (logP) was determined as 2.32.
`COc1ccc(CNC(=O)C=Cc2ccc(O)c(O)c2)cc1OC` gave a logP of 1.99.
Molecule `CCCCNC(=O)c1ccc2cc(O)c(O)cc2c1` had a lipophilicity (logP) of 2.72.
Under `CCCCOC(=O)/C=C/c1ccc(O)c(O)c1` stands 3.53; under `CCCCc1ccc(O)c(O)c1`, 2.96; under `CCCC(=O)C=Cc1ccc(O)c(O)c1`, 2.61.
Turning to `CCc1ccc2cc(O)c(O)cc2c1`, the log partition coefficient (logP) worked out at 3.25.
For the molecule `O=C(C=Cc1ccc(O)c(O)c1)NCCc1ccccc1`, the lipophilicity (logP) was 2.72.
As for `COc1ccc(CCNC(=O)C=Cc2ccc(O)c(O)c2)cc1OC`, the logP turned out to be 2.07.
Take `CCCCCCNC(=O)c1ccc(O)c(O)c1`: the logP was 2.71.
The value for `CCCCC=Cc1ccc(O)c(O)c1` was 3.82; that for `O=C(C=Cc1ccc(O)c(O)c1)NCc1ccccc1` was 2.48; that for `COc1ccc(NC(=O)C=Cc2ccc(O)c(O)c2)cc1OC` was 2.3.

For the origin of these results see the OPERA property sets (Mansouri et al. 2018).
